Earlier results as cited in patent US20070028401A1, “Powdered preparations containing a mixture of 2,4,6-trianilino-p-(carbo-2'-ethylhexyl-1'-oxi)-1,3,5-triazine and diethylamino-hydroxybenzoyl-hexyl-benzoate” (BASF Aktiengesellschaft, priority 2003, published 2007).
Where two headings read alike, the source gives them in different places.

absorbance coefficient (at 314 nm)	absorbance coefficient (at 354 nm)	SMILES
> 1500		CCCCC(CC)COC(=O)c1ccc(Nc2nc(Nc3ccc(C(=O)OCC(CC)CCCC)cc3)nc(Nc3ccc(C(=O)OCC(CC)CCCC)cc3)n2)cc1 (centres unmarked) [Uvinul T150, 2,4,6-Trianilino-p-(carbo-2′-ethylhexyl-1′-oxy)-1,3,5-triazine]
	940	CCCCCCOC(=O)c1ccccc1C(=O)c1ccc(N(CC)CC)cc1O [Uvinul® A Plus, Diethylamino hydroxybenzoyl hexyl benzoate]
